Laboratory results from US8901111B2, “Aryl-substituted heterocyclic urea modulators of fatty acid amide hydrolase” (Janssen Pharmaceutica NV, priority 2009, dated 2014).
Where a name gives a salt, the structure may show the parent alone.

What was measured:
rat FAAH = target: T1, rat FAAH (Rattus norvegicus, UniProt P97612); experiment: Assay Method 2: FAAH assay, 3H-anandamide hydrolysis in homogenate of cells transfected with rat FAAH; format: biochemical; details: cell homogenate, 3H-AEA 80 nM, 1 h at rt, average of results
T1 construct: expressed in transfected cells; crude homogenate
T1 sequence (P97612 1-579): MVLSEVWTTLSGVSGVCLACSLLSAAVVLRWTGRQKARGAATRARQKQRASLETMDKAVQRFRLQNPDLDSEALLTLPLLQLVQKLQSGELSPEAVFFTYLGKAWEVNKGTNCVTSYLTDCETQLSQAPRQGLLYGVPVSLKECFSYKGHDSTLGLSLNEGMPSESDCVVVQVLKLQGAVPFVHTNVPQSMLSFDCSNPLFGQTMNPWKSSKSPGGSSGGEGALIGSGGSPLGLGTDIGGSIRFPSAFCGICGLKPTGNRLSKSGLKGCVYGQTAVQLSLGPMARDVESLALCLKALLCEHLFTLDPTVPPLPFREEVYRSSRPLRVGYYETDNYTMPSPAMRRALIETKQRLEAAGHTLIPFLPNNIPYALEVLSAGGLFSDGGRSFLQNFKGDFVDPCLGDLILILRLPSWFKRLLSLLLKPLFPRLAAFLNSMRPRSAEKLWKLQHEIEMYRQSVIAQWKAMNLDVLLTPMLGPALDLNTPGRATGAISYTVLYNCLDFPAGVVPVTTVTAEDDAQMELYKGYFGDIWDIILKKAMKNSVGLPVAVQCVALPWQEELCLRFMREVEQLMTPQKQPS
Summary of the method: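 Homogenate of SK-N-MC cells stably transfected with rat FAAH, in pH 9 Tris/EDTA/glycerol/Triton buffer, incubated 1 h at rt with 80 nM final [1-3H-ethanolamine]anandamide. Released 3H-ethanolamine separated from substrate on activated charcoal filters by centrifugation and quantified by scintillation counting.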

FAAH = target: T2, FAAH (Homo sapiens, UniProt O00519); experiment: Assay Method 1: FAAH assay, 3H-anandamide hydrolysis in homogenate of cells transfected with human FAAH; format: biochemical; design: expressed in transfected cells; crude homogenate (T84 cell pellets named as alternative); details: cell homogenate, 3H-AEA 80 nM, 1 h at rt, average of results
T2 sequence (O00519 1-579): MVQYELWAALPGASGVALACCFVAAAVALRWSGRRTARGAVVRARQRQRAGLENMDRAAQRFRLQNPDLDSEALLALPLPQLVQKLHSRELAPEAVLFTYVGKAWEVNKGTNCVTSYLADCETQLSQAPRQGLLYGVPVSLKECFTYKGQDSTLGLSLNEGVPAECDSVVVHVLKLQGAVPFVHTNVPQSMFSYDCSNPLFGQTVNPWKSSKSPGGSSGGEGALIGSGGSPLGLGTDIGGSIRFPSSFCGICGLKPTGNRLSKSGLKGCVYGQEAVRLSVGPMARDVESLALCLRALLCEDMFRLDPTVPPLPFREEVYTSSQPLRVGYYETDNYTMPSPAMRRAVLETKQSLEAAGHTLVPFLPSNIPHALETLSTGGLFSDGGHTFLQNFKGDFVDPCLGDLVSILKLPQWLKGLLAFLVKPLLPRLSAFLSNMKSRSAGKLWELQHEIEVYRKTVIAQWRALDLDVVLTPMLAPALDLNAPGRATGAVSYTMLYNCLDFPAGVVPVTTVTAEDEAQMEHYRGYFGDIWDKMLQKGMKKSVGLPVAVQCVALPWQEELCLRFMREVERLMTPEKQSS
Summary of the method: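 Homogenates of SK-N-MC cells stably transfected with human FAAH (or T84 cells) in pH 9 Tris/EDTA/glycerol/Triton buffer, incubated with compound and 80 nM final ^3H-anandamide for 1 h at rt. Released ^3H-ethanolamine separated through activated charcoal by centrifugation and counted by scintillation.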

IC50 (rat FAAH) [µM]	IC50 (FAAH) [µM]	Compound
0.006	0.016	O=C(Nc1cnccc1Cl)N1CC[C@H](COc2cccc(Oc3ccc(Cl)cc3)c2)C1 [Example 55, (3S)-3-[3-(4-Chloro-phenoxy)-phenoxymethyl]-pyrrolidine-1-carboxylic acid (4-chloro-pyridin-3-yl)-amide]
0.002	0.004	O=C(Nc1cnccc1Cl)N1CC[C@@H](COc2cccc(Oc3ccc(Cl)cc3)c2)C1 [Example 56, (3R)-3-[3-(4-Chloro-phenoxy)-phenoxymethyl]-pyrrolidine-1-carboxylic acid (4-chloro-pyridin-3-yl)-amide]
> 10	3	O=C(Nc1cnccc1Cl)N1CCC(CCOc2ccccc2)C1 (stereo not shown) [Example 57, 3-(2-Phenoxy-ethyl)-pyrrolidine-1-carboxylic acid (4-chloropyridin-3-yl)-amide]
0.7	0.3	O=C(Nc1cnccc1Cl)N1CCC(CCOc2ccc(Cl)c(Cl)c2)C1 (stereo not shown) [Example 58, 3-[2-(3,4-Dichloro-phenoxy)-ethyl]-pyrrolidine-1-carboxylic acid (4-chloro-pyridin-3-yl)-amide]
> 10	> 10	O=C(Nc1cccnc1)N1CCC(CCOc2cccc(OC(F)(F)F)c2)C1 (stereo not shown) [Example 59, 3-[2-(3-Trifluoromethoxy-phenoxy)-ethyl]-pyrrolidine-1-carboxylic acid pyridin-3-ylamide]
> 10	> 10	O=C(Nc1cccnc1)N1CCC(CCOc2ccc(OC(F)(F)F)cc2)C1 (stereo not shown) [Example 60, 3-[2-(4-Trifluoromethoxy-phenoxy)-ethyl]-pyrrolidine-1-carboxylic acid pyridin-3-ylamide]
1.6	1.6	O=C(Nc1cnccc1Cl)N1CCC(CCOc2cccc(OC(F)(F)F)c2)C1 (stereo not shown) [Example 61, 3-[2-(3-Trifluoromethoxy-phenoxy)-ethyl]-pyrrolidine-1-carboxylic acid (4-chloro-pyridin-3-yl)-amide]
0.63	0.6	O=C(Nc1cccnc1)N1CCC(CCOc2cccc(Oc3ccc(Cl)cc3)c2)C1 (stereo not shown) [Example 63, 3-{2-[3-(4-Chloro-phenoxy)-phenoxy]-ethyl}-pyrrolidine-1-carboxylic acid pyridin-3-ylamide]
0.073	0.063	O=C(Nc1cnccc1Cl)N1CCC(CCOc2cccc(Oc3ccc(Cl)cc3)c2)C1 (stereo not shown) [Example 64, 3-{2-[3-(4-Chloro-phenoxy)-phenoxy]-ethyl}-pyrrolidine-1-carboxylic acid (4-chloro-pyridin-3-yl)-amide]
0.739	0.275	O=C(Nc1cnccc1Cl)N1CC(CCOCc2ccc(Cl)cc2)C1 [Example 65, 3-[2-(4-Chloro-benzyloxy)-ethyl]-azetidine-1-carboxylic acid (4-chloro-pyridin-3-yl)-amide]
0.084	0.039	O=C(Nc1cnccc1Cl)N1CC(CCOCc2ccc(Cl)c(Cl)c2)C1 [Example 67, 3-[2-(3,4-Dichloro-benzyloxy)-ethyl]-azetidine-1-carboxylic acid (4-chloro-pyridin-3-yl)-amide]
1.23	0.849	O=C(Nc1cccnc1)N1CC(CCOCc2ccc(Cl)c(Cl)c2)C1 [Example 68, 3-[2-(3,4-Dichloro-benzyloxy)-ethyl]-azetidine-1-carboxylic acid pyridin-3-ylamide, trifluoroacetate salt]
> 10	> 10	O=C(Nc1cccnc1)N1CCC(Cc2ccc3c(c2)OC(F)(F)O3)C1 (stereo not shown) [Example 71, 3-(2,2-Difluoro-benzo[1,3]dioxol-5-ylmethyl)-pyrrolidine-1-carboxylic acid pyridin-3-ylamide]
0.77	> 10	O=C(Nc1noc2ccccc12)N1CCC(Cc2ccc3c(c2)OC(F)(F)O3)C1 (stereo not shown) [Example 72, 3-(2,2-Difluoro-benzo[1,3]dioxol-5-ylmethyl)-pyrrolidine-1-carboxylic acid benzo[d]isoxazol-3-ylamide]
